# Experimental data reported in the supplement of paper PMC10307832.
# Key:
# Assay in all cases: relative viability (nuclei count vs DMSO), 5 days (fraction); higher = more cells survive
# [1] = system: Calu-6
# Procedure, shortened: (§1)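 Nuclei were stained with Hoechst during a one-step fixation (final 0.05% Triton X-100, 1% formaldehyde, 1 ug/ml Hoechst) carried out 5 days after dosing, then counted on 4× images. The cells, lung cancer lines in 1536-well plates, had been dosed by pin tool the day after seeding with one drug alone or a fixed anchor-drug dose plus five library-drug doses (not always all listed) in √10 steps. Relative viability is the nuclei count in treated wells divided by that in vehicle wells, and each value is the median of duplicate plates.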
# [2] = system: COR-L 105
# Procedure, shortened: as §1
# [3] = system: LK-2
# Procedure, shortened: as §1
# [4] = system: A549
# Procedure, shortened: as §1
# [5] = system: EBC-1
# Procedure, shortened: as §1
# [6] = system: IA-LM
# Procedure, shortened: as §1
# [7] = system: NCI-H1355
# Procedure, shortened: as §1
# [8] = system: NCI-H1299
# Procedure, shortened: as §1
# [9] = system: NCI-H520
# Procedure, shortened: as §1
# [10] = system: NCI-H1703
# Procedure, shortened: as §1
# [11] = system: NCI-H1666
# Procedure, shortened: as §1
structure (smiles),measurement,setting,value
CC(=O)O[C@@]12CO[C@@H]1C[C@H](O)[C@@]1(C)C(=O)[C@H](O)C3=C(C)[C@@H](OC(=O)[C@H](O)[C@@H](NC(=O)OC(C)(C)C)c4ccccc4)C[C@@](O)([C@@H](OC(=O)c4ccccc4)[C@H]21)C3(C)C [Docetaxel] + CC1(C)CCC(c2ccc(Cl)cc2)=C(CN2CCN(c3ccc(C(=O)NS(=O)(=O)c4ccc(N[C@H](CCN5CCOCC5)CSc5ccccc5)c(S(=O)(=O)C(F)(F)F)c4)cc3)CC2)C1 [Navitoclax] (partner 0.5 µM),relative viability,[1]; first compound 0.0002 µM,1.02
same,relative viability,[1]; first compound 0.000632 µM,0.707
same,relative viability,[1]; first compound 0.002 µM,0.111
same,relative viability,[1]; first compound 0.006325 µM,0.0836
same,relative viability,[1]; first compound 0.02 µM,0.0609
same,relative viability,[2]; first compound 0.0002 µM,0.94
same,relative viability,[2]; first compound 0.000632 µM,0.715
same,relative viability,[2]; first compound 0.002 µM,0.343
same,relative viability,[2]; first compound 0.006325 µM,0.367
same,relative viability,[2]; first compound 0.02 µM,0.26
same,relative viability,[3]; first compound 0.0002 µM,0.805
same,relative viability,[3]; first compound 0.000632 µM,0.556
same,relative viability,[3]; first compound 0.002 µM,0.172
same,relative viability,[3]; first compound 0.006325 µM,0.133
same,relative viability,[3]; first compound 0.02 µM,0.145
same,relative viability,[4]; first compound 0.0002 µM,0.985
same,relative viability,[4]; first compound 0.000632 µM,0.245
same,relative viability,[4]; first compound 0.002 µM,0.055
same,relative viability,[4]; first compound 0.006325 µM,0.0522
same,relative viability,[4]; first compound 0.02 µM,0.0365
same,relative viability,[5]; first compound 0.0002 µM,0.259
same,relative viability,[5]; first compound 0.000632 µM,0.27
same,relative viability,[5]; first compound 0.002 µM,0.152
same,relative viability,[5]; first compound 0.006325 µM,0.206
same,relative viability,[5]; first compound 0.02 µM,0.124
same,relative viability,[6]; first compound 0.0002 µM,0.506
same,relative viability,[6]; first compound 0.000632 µM,0.172
same,relative viability,[6]; first compound 0.002 µM,0.0734
same,relative viability,[6]; first compound 0.006325 µM,0.0267
same,relative viability,[6]; first compound 0.02 µM,0.024
same,relative viability,[7]; first compound 0.0002 µM,0.901
same,relative viability,[7]; first compound 0.000632 µM,0.77
same,relative viability,[7]; first compound 0.002 µM,0.372
same,relative viability,[7]; first compound 0.006325 µM,0.272
same,relative viability,[7]; first compound 0.02 µM,0.175
same,relative viability,[8]; first compound 0.0002 µM,1.05
same,relative viability,[8]; first compound 0.000632 µM,1.03
same,relative viability,[8]; first compound 0.002 µM,0.938
same,relative viability,[8]; first compound 0.006325 µM,0.526
same,relative viability,[8]; first compound 0.02 µM,0.351
same,relative viability,[9]; first compound 0.0002 µM,1.07
same,relative viability,[9]; first compound 0.000632 µM,0.86
same,relative viability,[9]; first compound 0.002 µM,0.283
same,relative viability,[9]; first compound 0.006325 µM,0.16
same,relative viability,[9]; first compound 0.02 µM,0.156
same,relative viability,[10]; first compound 0.0002 µM,1.07
same,relative viability,[10]; first compound 0.000632 µM,0.551
same,relative viability,[10]; first compound 0.006325 µM,0.129
same,relative viability,[10]; first compound 0.02 µM,0.108
same,relative viability,[11]; first compound 0.0002 µM,0.646
same,relative viability,[11]; first compound 0.000632 µM,0.565
same,relative viability,[11]; first compound 0.002 µM,0.354
same,relative viability,[11]; first compound 0.006325 µM,0.302
same,relative viability,[11]; first compound 0.02 µM,0.186
Nc1ccn([C@@H]2O[C@H](CO)[C@@H](O)[C@@H]2O)c(=O)n1 [Cytarabine] + CS(=O)(=O)CCNCc1ccc(-c2ccc3ncnc(Nc4ccc(OCc5cccc(F)c5)c(Cl)c4)c3c2)o1 [Lapatinib] (partner 2 µM),relative viability,[1]; first compound 0.005 µM,0.903
same,relative viability,[1]; first compound 0.01581 µM,0.856
same,relative viability,[1]; first compound 0.05 µM,0.921
same,relative viability,[1]; first compound 0.1581 µM,0.512
same,relative viability,[1]; first compound 0.5 µM,0.341
same,relative viability,[2]; first compound 0.005 µM,0.299
same,relative viability,[2]; first compound 0.01581 µM,0.328
same,relative viability,[2]; first compound 0.05 µM,0.297
same,relative viability,[2]; first compound 0.1581 µM,0.293
same,relative viability,[2]; first compound 0.5 µM,0.252
same,relative viability,[3]; first compound 0.005 µM,0.627
same,relative viability,[3]; first compound 0.01581 µM,0.479
same,relative viability,[3]; first compound 0.05 µM,0.395
same,relative viability,[3]; first compound 0.1581 µM,0.248
same,relative viability,[3]; first compound 0.5 µM,0.283
same,relative viability,[4]; first compound 0.005 µM,0.835
same,relative viability,[4]; first compound 0.01581 µM,0.648
same,relative viability,[4]; first compound 0.05 µM,0.569
same,relative viability,[4]; first compound 0.1581 µM,0.148
same,relative viability,[4]; first compound 0.5 µM,0.0593
same,relative viability,[5]; first compound 0.01581 µM,0.22
same,relative viability,[5]; first compound 0.05 µM,0.185
same,relative viability,[5]; first compound 0.1581 µM,0.152
same,relative viability,[5]; first compound 0.5 µM,0.208
same,relative viability,[6]; first compound 0.005 µM,0.85
same,relative viability,[6]; first compound 0.01581 µM,0.729
same,relative viability,[6]; first compound 0.05 µM,0.588
same,relative viability,[6]; first compound 0.1581 µM,0.297
same,relative viability,[6]; first compound 0.5 µM,0.175
same,relative viability,[7]; first compound 0.005 µM,0.884
same,relative viability,[7]; first compound 0.01581 µM,0.968
same,relative viability,[7]; first compound 0.05 µM,0.811
same,relative viability,[7]; first compound 0.1581 µM,0.66
same,relative viability,[7]; first compound 0.5 µM,0.322
same,relative viability,[8]; first compound 0.005 µM,0.976
same,relative viability,[8]; first compound 0.01581 µM,0.979
same,relative viability,[8]; first compound 0.05 µM,1.07
same,relative viability,[8]; first compound 0.1581 µM,0.987
same,relative viability,[8]; first compound 0.5 µM,0.95
same,relative viability,[9]; first compound 0.005 µM,0.557
same,relative viability,[9]; first compound 0.01581 µM,0.743
same,relative viability,[9]; first compound 0.05 µM,0.911
same,relative viability,[9]; first compound 0.1581 µM,0.552
same,relative viability,[9]; first compound 0.5 µM,0.47
same,relative viability,[10]; first compound 0.005 µM,0.776
same,relative viability,[10]; first compound 0.01581 µM,0.388
same,relative viability,[10]; first compound 0.05 µM,0.286
same,relative viability,[10]; first compound 0.1581 µM,0.16
same,relative viability,[10]; first compound 0.5 µM,0.194
same,relative viability,[11]; first compound 0.005 µM,0.455
same,relative viability,[11]; first compound 0.01581 µM,0.549
same,relative viability,[11]; first compound 0.05 µM,0.378
same,relative viability,[11]; first compound 0.1581 µM,0.308
same,relative viability,[11]; first compound 0.5 µM,0.262
